Entries after “also recorded” stand apart in the source; their conditions may differ. Like-named read-outs stand apart in the source and are kept apart here.
Columns and labels:
human monocytes = experiment: Cytotoxicity by LDH content of monocyte lysates
Description: (§1) To measure the impact of the flavones on cytokine production, PBMCs were resuspended to 4×10^6 /mL in complete medium, i.e., Dulbecco's Modified Eagle Medium containing 30% FCS, 2 mM glutamine, 100 U/mL Penicillin-G, and 100 μg/mL streptomycin. […] Nonadherent cells (lymphocytes) were separated from the plastic adherent cells (monocytes) by washing the wells twice with 200 μL of medium. The monocytes were cultured an additional 30 min in 100 μL of complete medium containing graded concentrations of the compound of interest and the cultures were then adjusted to contain […] LPS to stimulate cytokine production. Culture supernatants were harvested 14 h later, and cells were lysed by addition of 50 μL of Dulbecco's phosphate buffered saline containing 1% NP40. Culture supernatants were evaluated for TNFα, IL-1β, IL-6, IL-8, IL-10, and MIP-1α content using specific enzyme-linked immunosorbent assays (ELISA) purchased from R&D Systems. IL-1β was measured in cell lysates by ELISA. Lactate dehydrogenase (LDH) content of cell lysates was measured to determine compound effects on cell viability: To 50 μL of lysate were added 200 μL of 50 mM sodium pyrophosphate buffer (pH 8.9) containing 50 mM lactic acid and 4 mg/mL β-nicotinamide adenine dinucleotide (Sigma); rates of reduction of nicotinamide adenine dinucleotide were measured at room temperature at 340 nm.

TNFα [1] = experiment: TNFα production by LPS-stimulated human monocytes (ELISA); format: cell-based; details: for inhibition of TNFα production (in words): LPS-stimulated human monocytes; for IC50: read-out: IC50 for inhibition of TNFα production
Description: Isolation of human peripheral blood monocytes: Peripheral blood mononuclear cells (PBMCs) were isolated from residual source leukocytes (Bonfils Blood Center, CO) by density gradient centrifugation using Ficoll-Paque Plus (Pharmacia, Sweden).
as §1

intracellular cAMP = experiment: Cellular cAMP in human monocytes (EIA); format: cell-based; details: 30 min; for intracellular cAMP level: media alone 2.7±0.9
Description: To test flavones for the ability to cause an increase in cellular cAMP, monocytes were purified from PBMC by centrifugal elutriation. Monocytes were resuspended to 5×10^6 /mL in complete medium and 2 mL cell suspension were dispensed into FALCON 17×100 mm polypropylene culture tubes (Becton Dickinson). The cells were precultured 2 h at 37° C. and 5% CO2, and then cultured an additional 30 min following adjusting culture media to contain 100 μM of the flavone of interest or 200 μM IBMX (3-isobutyl-1-methylxanthine). Cells were then collected by centrifugation, lysed in 300 μL of ice cold aqueous solution containing 10 mM HEPES (pH 7.6) and 1% NP40. The lysates were applied to 100 mg columns of Amprep SAX resin (Amersham). The columns were then rinsed with 1 mL of methanol and the cAMP was eluted in 600 μL of methanol containing 0.01 M HCl. The eluates were chilled on dry ice and dried under vacuum. The Amersham Biotrak cAMP EIA assay was used to measure cAMP content of residues resuspended in 400 μL of assay buffer.

IL-1β = IL-1β production by LPS-stimulated human monocytes (ELISA, cell lysates); format: cell-based; details: cytokine suppression profile, HMF compared against IBMX (Table 2)
Description: (§2) Adherent purified human monocytes were cultured in the presence of graded concentrations of heptamethoxyflavone for 30 min. The monocyte cultures were then adjusted to contain 20 ng/mL LPS. After 14 h of culture, the cytokines TNFα, IL-6, IL-8, MIP-1α, and IL-10 were assayed in the culture supernatants and IL-1β was assayed in the cell lysates using specific ELISA assays as described below. Values expressed as the percent of cytokine produced in flavone-free cultures are the means and standard errors determined using monocytes isolated from three independent donors.
(§3) Isolation of human peripheral blood monocytes: Peripheral blood mononuclear cells (PBMCs) were isolated from residual source leukocytes (Bonfils Blood Center, CO) by density gradient centrifugation using Ficoll-Paque Plus (Pharmacia, Sweden). Monocytes were purified further by plastic adherence (see below) or by centrifugal elutriation as described previously (Manthey, C. L., et al., J. Leuk Biol., 64: 409-416 (1998)).
(§4) IL-1β was measured in cell lysates by ELISA.

IL-8 = IL-8 production by LPS-stimulated human monocytes (ELISA); format: cell-based; details: cytokine suppression profile, HMF compared against IBMX (Table 2)
Description: as §2, §3, §4

IL-10 = IL-10 production by LPS-stimulated human monocytes (ELISA); format: cell-based; details: LPS-stimulated human monocytes
Description: as §2, §3, §4

IL-6 = IL-6 production by LPS-stimulated human monocytes (ELISA); format: cell-based; details: cytokine suppression profile, HMF compared against IBMX (Table 2)
Description: as §2, §3, §4

[2] = test system: type-IV phosphodiesterase semi-purified from U937 cells; experiment: Phosphodiesterase cAMP SPA enzyme assay; format: biochemical; details: hydrolysis of cAMP; read-out: concentration inhibiting phosphodiesterase activity 50%
Description: PDE semipurified from U937 monocytic cells was evaluated for the ability to catalyze the hydrolysis of cAMP in the presence of graded concentrations of flavone, myricetin, and HMF as described below. The rates are plotted as percent of control-reactions, where no flavonoids were present. Testing flavones as phosphodiesterase inhibitors and inducers of cellular cyclic adenosine monophosphate (cAMP): The Phosphodiesterase cAMP SPA Enzyme Assay (Amersham, Arlington Heights, Ill.) was used to test the ability of flavones to inhibit cAMP hydrolysis catalyzed by phosphodiesterase. The phosphodiesterase used in this study was semi-purified from U937 cells, and was determined to be mostly the type-IV isoform based on sensitivity to selected isoform inhibitors (Trophy, T. J., J. Pharmacol. Experimental Therapeutics, 1195-1205 (1992)).

TNFα [3] = details: mice, cited from earlier work
[4] = human monocytes, LDH content of cell lysates
[5] = Monocyte, human monocytes, 30 min preculture with compound, LPS, 14 h, 30% FCS
[6] = human monocytes, 30 min preculture with compound, LPS, 14 h, 30% FCS

Row | Compound | cytotoxicity towards cultured human monocytes (depletion of cellular LDH activity) (human monocytes) | inhibition of TNFα production (in words) (TNFα [1]) | cytotoxicity towards cultured human monocytes (depletion of cellular LDH activity) (human monocytes; [4]) | other results
1 | O=c1c(O)c(-c2ccc(O)cc2)oc2cc(O)ccc12 [3,4,7-trihydroxyflavone] | lacked activity and any associated cytotoxicity | lacked activity | – | –
2 | O=c1c(O)c(-c2ccccc2)oc2ccccc12 [3-hydroxyflavone] | lacked activity and any associated cytotoxicity | lacked activity | – | –
3 | O=c1cc(-c2ccc(O)cc2)oc2ccc(O)c(O)c12 [4,5,6-trihydroxyflavone] | lacked activity and any associated cytotoxicity | lacked activity | – | –
4 | O=c1cc(-c2ccccc2)oc2cc(O)ccc12 [7-hydroxyflavone] | – | lacked activity | lacked activity and any associated cytotoxicity | –
5 | CC(C)Cn1c(=O)n(C)c(=O)c2[nH]cnc21 [IBMX, 3-isobutyl-1-methylxanthine] | – | – | – | increase of monocyte cAMP levels over media alone (in words) (intracellular cAMP; 200 μM): at least a doubling; intracellular cAMP level (intracellular cAMP; 200 μM): 8.3±1.9 pmol/10^7 cells; suppression of IL-1β production (IL-1β): neither suppressed; suppression of IL-8 production (IL-8): neither suppressed; inhibition of IL-10 production (in words) (IL-10): did not inhibit; suppression of IL-6 production (IL-6): neither suppressed
6 | O=c1cc(-c2ccccc2)oc2cc(O)c(O)c(O)c12 [baicalein] | lacked activity and any associated cytotoxicity | lacked activity | – | –
7 | Oc1cc(O)c2c(c1)OC(c1ccc(O)c(O)c1)C(O)C2 (centres unmarked) [catechin] | – | lacked activity | lacked activity and any associated cytotoxicity | –
8 | O=c1cc(-c2ccccc2)oc2cc(O)cc(O)c12 [chrysin] | – | lacked activity | lacked activity and any associated cytotoxicity | –
9 | COc1ccc(-c2cc(=O)c3c(O)cc(O[C@@H]4O[C@H](CO[C@@H]5O[C@@H](C)[C@H](O)[C@@H](O)[C@H]5O)[C@@H](O)[C@H](O)[C@H]4O)cc3o2)cc1O [diosmin] | – | – | no cytotoxicity | IC50 (TNFα [1]; [5]): > 200 µM
10 | Oc1cc(O)c2c(c1)O[C@H](c1ccc(O)c(O)c1)[C@H](O)C2 [epicatechin] | lacked activity and any associated cytotoxicity | lacked activity | – | –
11 | O=C1C[C@@H](c2ccc(O)c(O)c2)Oc2cc(O)cc(O)c21 [eriodictyol] | lacked activity and any associated cytotoxicity | lacked activity | – | –
12 | O=c1c(O)c(-c2ccc(O)c(O)c2)oc2cc(O)ccc12 [fisetin] | – | lacked activity | lacked activity and any associated cytotoxicity | –
13 | O=C1CC(c2ccccc2)Oc2ccccc21 (centres unmarked) [flavanone] | – | lacked activity | lacked activity and any associated cytotoxicity | –
14 | O=c1cc(-c2ccccc2)oc2ccccc12 [flavone] | – | much less active | – | increase of monocyte cAMP levels over media alone (in words) (intracellular cAMP; 100 μM): much less; intracellular cAMP level (intracellular cAMP; 100 μM): 3.6±1.1 pmol/10^7 cells; IC50 [2]: 11 µM
15 | O=c1c(O)c(-c2ccccc2)oc2cc(O)cc(O)c12 [galagin] | – | lacked activity | lacked activity and any associated cytotoxicity | –
16 | O=c1c(O)c(-c2ccc(O)c(O)c2)oc2c(O)c(O)cc(O)c12 [gossypetin] | – | lacked activity | lacked activity and any associated cytotoxicity | –
17 | COc1ccc([C@@H]2CC(=O)c3c(O)cc(O)cc3O2)cc1O [hesperetin] | lacked activity and any associated cytotoxicity | lacked activity | – | –
18 | COc1ccc([C@@H]2CC(=O)c3c(O)cc(O[C@@H]4O[C@H](CO[C@@H]5O[C@@H](C)[C@H](O)[C@@H](O)[C@H]5O)[C@@H](O)[C@H](O)[C@H]4O)cc3O2)cc1O [hesperidin] | no cytotoxicity | – | – | IC50 (TNFα [1]; Homo sapiens, Monocyte): > 200 µM
19 | O=c1cc(-c2ccc(O)cc2)oc2cc(O)c([C@@H]3O[C@H](CO)[C@@H](O)[C@H](O)[C@H]3O)c(O)c12 [isovitexin] | no cytotoxicity | – | – | IC50 (TNFα [1]; [5]): > 200 µM
20 | O=c1c(O)c(-c2cc(O)c(O)c(O)c2)oc2cc(O)cc(O)c12 [myricetin] | – | lacked activity; also recorded: much less active | lacked activity and any associated cytotoxicity | increase of monocyte cAMP levels over media alone (in words) (intracellular cAMP; 100 μM): much less; intracellular cAMP level (intracellular cAMP; 100 μM): 3.7±1.0 pmol/10^7 cells; IC50 [2]: 16 µM
21 | C[C@@H]1O[C@@H](O[C@H]2[C@H](Oc3cc(O)c4c(c3)O[C@H](c3ccc(O)cc3)CC4=O)O[C@H](CO)[C@@H](O)[C@@H]2O)[C@H](O)[C@H](O)[C@H]1O [naringin] | no cytotoxicity | – | – | IC50 (TNFα [1]; [5]): > 200 µM; liver injury (TNFα [3]; lipopolysaccharide-induced): suppress; lipopolysaccharide-induced TNFα release (TNFα [3]): suppress
22 | C[C@@H]1O[C@@H](OC[C@H]2O[C@@H](Oc3cc(O)c4c(c3)O[C@H](c3ccc(O)cc3)CC4=O)[C@H](O)[C@@H](O)[C@@H]2O)[C@H](O)[C@H](O)[C@H]1O [narirutin] | no cytotoxicity | – | – | IC50 (TNFα [1]; [5]): > 200 µM
23 | CC1OC(OCC2OC(Oc3c(-c4ccc(O)cc4)oc4cc(OC5OC(C)C(O)C(O)C5O)cc(O)c4c3=O)C(O)C(O)C2O)C(O)C(O)C1O (centres unmarked) [robinin] | – | lacked activity | lacked activity and any associated cytotoxicity | –
24 | COc1ccc(-c2cc(=O)c3c(OC)c(OC)c(OC)cc3o2)cc1 [tetra-O-methylscutellarein] | – | – | exception | –
25 | isomargaretin | no cytotoxicity | – | – | IC50 (TNFα [1]; [6]): > 200 µM
26 | margaretin | no cytotoxicity | – | – | IC50 (TNFα [1]; [6]): > 200 µM

Source: patent US6184246A, “Inhibition of cytokine production by polymethoxylated flavones” (priority 1999, dated 2001)
